Test results: article PMC12339328, “Therapeutic effect and mechanism of gigantol on hyperuricemia” (Frontiers in Endocrinology, 2025)
“And” between values parts separate entries of the source, which are not always exact repeats. Identical values can stand only once. Like-named read-outs stand apart in the source and are kept apart here.

Columns and labels:
ASC = ASC protein expression in HK-2 cells (Western blot); conditions: for asc / β (reference protein) ratio / asc protein expression, band value: HK-2, replicates 1-3; for ASC protein level in HK-2 cells: HUA cell model
OAT1 = OAT1 protein expression in HK-2 cells (Western blot); conditions: for OAT1 / β (reference protein) ratio / OAT1 protein expression, band value: HK-2, replicates 1-3
NLRP3 [1] = assay: NLRP3 content in serum and kidney of HUA mice (ELISA); format: in vivo; conditions: gigantol low, medium, high dose intragastric, vs model group
Protocol: Blood obtained from mice in each group was centrifuged at 3,000 r/min for 15 min in a low-temperature high-speed centrifuge. Then, the serum was separated, and the levels of UA, CRE, and BUN in the serum were measured by the kits. The levels of TNF-α, IL-1β, IL-6, and NLRP3 in serum were detected by ELISA kits. Liver and kidney tissues were homogenized by adding ice-cold saline, and homogenates were centrifuged at 12,000 r/min for 10 min. XOD activity in the supernatant of the liver tissues was measured, and the levels of TNF-α, IL-1β, IL-6, and NLRP3 in the supernatant of the kidney tissues were measures by ELISA kits.

AML12 cells = assay: UA level in AML12 HUA cell model; format: cell-based, mouse; conditions: adenosine + XOD induced; gigantol 25, 50, 100 μmol/L; p < 0.001
XOD = molecular target: T1, XOD (Mus musculus, UniProt Q00519); format: in vivo; conditions: HUA mice, vs model group
T1 construct: XOD activity in the supernatant of the liver tissues was measured; from tissue; host or cells: liver of male KM mice (hyperuricemia model, potassium oxonate)

NLRP3 [2] = assay: NLRP3 protein expression in HK-2 cells (Western blot); conditions: for NLRP3 / β (reference protein) ratio / NLRP3 protein expression, band value: HK-2, replicates 1-3; for NLRP3 protein level in HK-2 cells: HUA cell model
[3] = system: renal tissue in mice with HUA; assay: Renal histopathology of HUA mice (HE staining); format: in vivo; conditions: 200×, gigantol-treated groups
Description: The kidney and liver tissues were fixed with 4% paraformaldehyde solution. After paraffin embedding and sectioning, the paraffin on the slide was removed with xylene and soaked in different concentrations of ethanol and deionized water. The liver and kidney tissues were stained according to the HE staining procedure, and then the morphology of the kidney tissues and liver tissues was observed under the microscope.

NLRP3 [4] = assay: NLRP3 content in HK-2 HUA cell model (ELISA); format: cell-based, human; conditions: gigantol 25, 50, 100 µmol/L, dose-dependent
Protocol: HK-2 cells were treated as described above. The supernatant of the medium was collected, and the levels of proinflammatory cytokines (TNF-α, IL-6, and IL-1β) and the NLRP3 inflammasome component in the supernatant were detected using commercially available ELISA kits according to the manufacturers’ protocols.

[5] = 50 and 100 µmol/L gigantol, vs model group
[6] = gigantol intervention, especially high-dose group (p < 0.001), vs model

T1 sequence (Q00519 whole entry): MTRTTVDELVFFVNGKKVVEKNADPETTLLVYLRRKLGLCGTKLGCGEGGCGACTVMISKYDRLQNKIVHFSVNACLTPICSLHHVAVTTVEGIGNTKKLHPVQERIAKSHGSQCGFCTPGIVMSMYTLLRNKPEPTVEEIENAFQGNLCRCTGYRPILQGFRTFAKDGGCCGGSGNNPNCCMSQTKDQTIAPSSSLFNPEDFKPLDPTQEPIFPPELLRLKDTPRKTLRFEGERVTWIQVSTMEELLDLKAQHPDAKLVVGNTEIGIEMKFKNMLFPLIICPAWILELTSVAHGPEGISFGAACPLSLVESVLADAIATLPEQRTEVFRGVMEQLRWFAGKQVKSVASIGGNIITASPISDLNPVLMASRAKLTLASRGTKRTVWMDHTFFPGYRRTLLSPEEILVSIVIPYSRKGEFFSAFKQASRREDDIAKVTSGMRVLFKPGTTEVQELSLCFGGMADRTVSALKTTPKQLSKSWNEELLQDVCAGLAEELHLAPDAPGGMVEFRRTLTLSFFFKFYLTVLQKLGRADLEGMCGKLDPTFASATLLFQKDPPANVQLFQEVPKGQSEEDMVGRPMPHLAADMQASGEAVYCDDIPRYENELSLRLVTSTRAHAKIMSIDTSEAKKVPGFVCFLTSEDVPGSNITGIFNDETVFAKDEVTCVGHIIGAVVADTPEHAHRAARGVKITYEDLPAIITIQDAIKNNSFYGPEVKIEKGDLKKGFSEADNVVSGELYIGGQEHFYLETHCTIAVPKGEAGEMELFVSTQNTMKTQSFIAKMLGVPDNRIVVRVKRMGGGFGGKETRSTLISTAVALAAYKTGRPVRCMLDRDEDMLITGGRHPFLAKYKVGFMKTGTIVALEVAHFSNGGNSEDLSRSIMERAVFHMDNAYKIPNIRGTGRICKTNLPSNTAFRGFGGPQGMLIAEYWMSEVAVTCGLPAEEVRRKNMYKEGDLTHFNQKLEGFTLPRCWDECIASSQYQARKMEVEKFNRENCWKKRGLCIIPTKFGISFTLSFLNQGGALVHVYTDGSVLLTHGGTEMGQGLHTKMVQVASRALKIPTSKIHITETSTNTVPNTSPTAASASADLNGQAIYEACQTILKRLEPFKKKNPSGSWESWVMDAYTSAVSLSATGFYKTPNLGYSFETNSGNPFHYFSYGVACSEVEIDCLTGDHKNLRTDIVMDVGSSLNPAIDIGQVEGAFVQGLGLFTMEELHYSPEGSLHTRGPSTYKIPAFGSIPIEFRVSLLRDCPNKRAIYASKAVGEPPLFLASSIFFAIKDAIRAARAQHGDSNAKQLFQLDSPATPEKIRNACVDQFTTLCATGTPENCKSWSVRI

5-[2-(3-hydroxy-5-methoxyphenyl) ethyl]-2-methoxyphenol [gigantol]
asc / β (reference protein) ratio (ASC; 中 = gigantol 50 µmol/L): 0.7729 and 0.7908 and 0.8759 | asc protein expression, band value (ASC; 中 = gigantol 50 µmol/L): 134.385 and 146.868 and 166.261 | asc / β (reference protein) ratio (ASC; 低 = gigantol 25 µmol/L): 0.9783 and 1.053 and 1.058 | asc protein expression, band value (ASC; 低 = gigantol 25 µmol/L): 161.976 and 197.704 and 190.261 | asc / β (reference protein) ratio (ASC; 高 = gigantol 100 µmol/L): 0.7353 and 0.6853 and 0.7512 | asc protein expression, band value (ASC; 高 = gigantol 100 µmol/L): 136.893 and 134.134 and 146.281 | ASC protein level in HK-2 cells (ASC; [5]): significantly reduced | ASC protein level in HK-2 cells (ASC; [6]): decreased significantly | OAT1 / β (reference protein) ratio (OAT1; 中 = gigantol 50 µmol/L): 1.086 and 1.108 and 1.097 | OAT1 protein expression, band value (OAT1; 中 = gigantol 50 µmol/L): 188.76 and 205.851 and 208.271 | OAT1 / β (reference protein) ratio (OAT1; 低 = gigantol 25 µmol/L): 1.029 and 1.058 and 0.975 | OAT1 protein expression, band value (OAT1; 低 = gigantol 25 µmol/L): 170.32 and 198.69 and 175.271 | OAT1 / β (reference protein) ratio (OAT1; 高 = gigantol 100 µmol/L): 1.06 and 1.0745 and 1.075 | OAT1 protein expression, band value (OAT1; 高 = gigantol 100 µmol/L): 197.371 and 210.308 and 209.271 | OAT1 protein level in HK-2 cells (OAT1; HUA cell model, 50 and 100 µmol/L, vs model group): significantly increased | OAT1 protein expression in HK-2 cells (OAT1; HUA cell model, gigantol 25, 50, 100 µmol/L, dose-dependent): increase | NLRP3 level in kidney (NLRP3 [1]): decreased | NLRP3 level in serum (NLRP3 [1]): decreased | UA level in AML12 cells (AML12 cells): suppressed | XOD activity in mice liver (XOD; gigantol high dose (20 mg/kg), p < 0.001): inhibited | XOD activity in mice liver (XOD; gigantol low and middle doses (5, 10 mg/kg), p > 0.05): no significant difference | NLRP3 / β (reference protein) ratio (NLRP3 [2]; 中 = gigantol 50 µmol/L): 0.7212 and 0.9246 and 0.7381 | NLRP3 protein expression, band value (NLRP3 [2]; 中 = gigantol 50 µmol/L): 125.385 and 171.712 and 140.12 | NLRP3 / β (reference protein) ratio (NLRP3 [2]; 低 = gigantol 25 µmol/L): 0.7726 and 0.9621 and 1.043 | NLRP3 protein expression, band value (NLRP3 [2]; 低 = gigantol 25 µmol/L): 127.912 and 180.721 and 187.495 | NLRP3 / β (reference protein) ratio (NLRP3 [2]; 高 = gigantol 100 µmol/L): 0.5752 and 0.7261 and 0.6462 | NLRP3 protein expression, band value (NLRP3 [2]; 高 = gigantol 100 µmol/L): 107.093 and 142.123 and 125.837 | NLRP3 protein level in HK-2 cells (NLRP3 [2]; 25 μmol/L gigantol, vs model group): moderately reduced | NLRP3 protein level in HK-2 cells (NLRP3 [2]; [5]): significantly reduced | NLRP3 protein level in HK-2 cells (NLRP3 [2]; [6]): decreased significantly | renal histopathology: glomerulus injury [3]: a trend of recovery in the injury of the glomerulus | renal histopathology: urate crystals [3]: no urate crystals in the renal tubules | NLRP3 in HK-2 cells (NLRP3 [4]): significantly reduced
